Results as given in ChEMBL document CHEMBL1201862, “PubChem BioAssay data set” (2004).
Calls of active or inactive are those of the source.

Experiments:
Assay type in all cases: functional
[1] = viability loss in HeLa cells – cytotoxicity control for MgcRacGAP inhibitor project, dose response (AID 624300)
Insulin-degrading enzyme = target: T1, Insulin-degrading enzyme (Homo sapiens, UniProt P14735); assay: Dose Response: Fluorescence polarization-based cell-based high throughput dose response assay for inhibitors of insulin-degrading enzyme (IDE). [Related pubchem assays: 434962 (Primary screen (IDE inhibitors in singlicate)), 449730 (Counterscreen (Cytotoxicity in triplicate)), 435028 (Confirmation (IDE inhibitors in triplicate)), 434984 (Summary …
T1 sequence (P14735 whole entry): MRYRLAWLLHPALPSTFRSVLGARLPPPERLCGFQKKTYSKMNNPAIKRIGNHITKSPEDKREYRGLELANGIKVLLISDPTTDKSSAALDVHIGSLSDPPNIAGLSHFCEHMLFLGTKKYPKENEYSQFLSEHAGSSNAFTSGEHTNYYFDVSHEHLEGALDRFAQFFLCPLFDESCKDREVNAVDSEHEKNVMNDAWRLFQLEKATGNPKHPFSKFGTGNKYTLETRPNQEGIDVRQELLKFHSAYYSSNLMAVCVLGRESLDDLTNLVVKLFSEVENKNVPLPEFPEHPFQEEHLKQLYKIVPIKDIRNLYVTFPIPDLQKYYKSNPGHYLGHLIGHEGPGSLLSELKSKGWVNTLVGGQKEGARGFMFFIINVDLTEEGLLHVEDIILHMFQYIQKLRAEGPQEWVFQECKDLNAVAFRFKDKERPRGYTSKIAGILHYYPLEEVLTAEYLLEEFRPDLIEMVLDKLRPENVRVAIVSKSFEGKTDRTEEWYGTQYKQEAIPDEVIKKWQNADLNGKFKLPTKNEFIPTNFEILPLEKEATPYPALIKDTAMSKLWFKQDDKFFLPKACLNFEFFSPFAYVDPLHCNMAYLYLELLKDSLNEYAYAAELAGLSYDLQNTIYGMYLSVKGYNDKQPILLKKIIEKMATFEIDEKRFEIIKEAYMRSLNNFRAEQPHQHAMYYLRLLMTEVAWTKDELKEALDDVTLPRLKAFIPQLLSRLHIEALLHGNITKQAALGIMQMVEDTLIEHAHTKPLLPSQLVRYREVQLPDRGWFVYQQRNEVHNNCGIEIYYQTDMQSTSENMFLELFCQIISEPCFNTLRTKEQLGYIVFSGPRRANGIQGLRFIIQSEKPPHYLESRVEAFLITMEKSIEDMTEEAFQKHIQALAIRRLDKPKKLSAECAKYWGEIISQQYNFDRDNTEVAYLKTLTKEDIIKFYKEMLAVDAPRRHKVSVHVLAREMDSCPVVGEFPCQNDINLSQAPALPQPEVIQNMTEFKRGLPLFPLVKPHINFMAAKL

[2] = Counterscreen for IDE inhibitors: Luminescence-based cell-based high throughput dose response assay to identify compounds that are cytotoxic to HEK cells. [Related pubchem assays: 434962 (Primary screen (IDE inhibitors in singlicate)), 449730 (Counterscreen (Cytotoxicity in triplicate)), 435028 (Confirmation (IDE inhibitors in triplicate)) …; details: HEK293
[3] = target: T2, Rac GTPase-activating protein 1 (Homo sapiens, UniProt Q9H0H5); assay: blockers of MgcRacGAP-driven Rac1 GTP hydrolysis – biochemical, ADP Hunter fluorescence, primary and confirmatory, confirmation (AID 624330)
T2 sequence (Q9H0H5 whole entry): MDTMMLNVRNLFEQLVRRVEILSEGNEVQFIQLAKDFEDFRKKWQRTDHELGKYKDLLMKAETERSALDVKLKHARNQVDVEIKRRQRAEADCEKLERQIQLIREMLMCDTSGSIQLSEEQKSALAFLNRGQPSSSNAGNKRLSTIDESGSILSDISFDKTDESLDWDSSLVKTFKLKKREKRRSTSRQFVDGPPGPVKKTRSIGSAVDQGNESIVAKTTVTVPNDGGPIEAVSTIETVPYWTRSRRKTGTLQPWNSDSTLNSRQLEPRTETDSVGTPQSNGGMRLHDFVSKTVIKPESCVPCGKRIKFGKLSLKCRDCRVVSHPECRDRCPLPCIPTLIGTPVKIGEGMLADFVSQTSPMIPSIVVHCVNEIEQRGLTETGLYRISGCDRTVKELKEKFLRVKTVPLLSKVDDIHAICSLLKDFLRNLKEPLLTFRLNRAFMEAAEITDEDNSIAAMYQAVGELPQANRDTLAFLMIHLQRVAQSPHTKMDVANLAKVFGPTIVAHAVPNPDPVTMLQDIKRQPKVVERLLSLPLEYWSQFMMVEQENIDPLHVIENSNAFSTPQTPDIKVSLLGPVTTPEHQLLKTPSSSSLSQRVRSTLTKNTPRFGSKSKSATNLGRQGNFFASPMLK

Row | Structure (SMILES) | CC50 [1] | IC50 (Insulin-degrading enzyme) | IC50 [2] | IC50 [3]
1 | COc1ccc(NC2=NC(=O)/C(=C/c3ccc(O)c(OC)c3)S2)cc1 | 95.4 µM (active) | > 6.22 µM (active) | 38.1 µM (not active) | 17.9 µM (active)
2 | Cc1ccc(NC(=O)CSc2nnc(CN3CCOCC3)n2C)cc1C |  | > 55.9 µM (not active) | > 55.7 µM (not active) | 
